Data taken from ChEMBL document CHEMBL1127587, “Modeling the anticarcinogenic action of retinoids by making use of the OASIS method. 3. Inhibition of the induction of ornithine decarboxylase by arotinoids” (J Med Chem, 1994).

Assay: Tested for experimental arotinoid inhibitory dose

| SMILES | -Log ID50 |
| --- | --- |
| C/C(=C\c1ccc(C(=O)O)cc1)c1ccc2c(c1)C(C)(C)CCO2 | 8.57 |
| C/C(=C\c1ccc(C(=O)O)cc1)c1ccc2c(c1)C(C)(C)CCC2(C)C | 10.52 |
| C/C(=C\c1ccc2c(c1)C(C)(C)CCC2(C)C)c1ccc(C(=O)O)cc1 | 10.52 |
| C/C(=C\c1ccc(C(=O)O)cc1)c1ccc2c(c1)CCCC2(C)C | 9.22 |
| C/C(=C(/F)c1ccc(C(=O)O)cc1)c1cc2c(s1)CCCC2(C)C | 9.22 |
| C/C(=C(/F)c1ccc(C(=O)O)cc1)c1ccc2c(c1)C(C)(C)CCC2(C)C | 10.1 |
| C/C(=C\c1ccc(C(=O)O)cc1)c1ccc2c(c1)C(C)(C)CC[C@H]2C | 10.22 |
| CC1(C)CCC(C)(C)c2cc3cc(-c4ccc(C(=O)O)cc4)ccc3cc21 | 10.15 |
| C/C(=C\c1ccc(C(=O)O)cc1)c1ccc2c(c1)C(C)(C)CCS2 | 9.3 |
| C/C(=C\c1ccc(C(=O)O)cc1)c1ccc2c(c1)C1CCC2C1 (stereo not given) | 8.51 |
| C/C(=C\c1ccc2c(c1)C(C)(C)CCS2)c1ccc(C(=O)O)cc1 | 9.22 |
| C/C(=C\c1ccc(C(=O)O)cc1)c1ccc2c(c1)C(C)(C)CCC2C (stereo not given) | 10.15 |
| COc1ccc(/C(C)=C/c2ccc(C(=O)O)cc2)cc1C(C)(C)C | 9.4 |
| C/C(=C\c1ccc(C(=O)O)cc1)c1ccc(SCCC(C)C)cc1 | 6.77 |
| C/C(=C\c1ccc(C(=O)O)cc1)c1ccc2c(C)c(C)c(C)c(C)c2c1 | 8.8 |
| C/C(=C\c1ccc(C(=O)O)cc1)c1ccc2c(c1)SCCC2(C)C | 9.22 |
| C/C(=C\c1ccc(C(=O)O)cc1)c1ccc2ccc(C)c(C)c2c1 | 6.7 |
| C/C(=C\c1ccc(C(=O)O)cc1)c1ccc2c(c1)C(C)(C)CC[C@@H]2C | 10.3 |
| C/C(=C\c1ccc(C(=O)O)cc1)c1ccc2c(c1)C(C)(C)CCC2 | 8.96 |
| C/C(=C\c1ccc(C(=O)O)cc1)c1cc2c(s1)CCCC2(C)C | 10 |
